From patent US10322032B2, “Absorbent article comprising a fragrance or odor control composition” (The Procter & Gamble Company, priority 2013, dated 2019)

Key:
[1] = log P, n-octanol/water partition coefficient (EPA OPPTS 830.7550 shake flask method); format: physicochemical; settings: partitioning between octanol and water; for logP: n-octanol/water
Description: The use of log P values is well known in the chemical arts as representing the relative affinity that a material has for partitioning between octanol and water, so that a material that partitions more readily into octanol would tend to be more lipophillic and have a higher log P value than a material that partitions less readily into octanol. […] 1996, under the title “Product Properties Test Guidelines—OPPTS 830.7550 Partition Coefficient (n-Octanol/Water), Shake flask method.” which description is incorporated herein by reference. In following this EPA method in all instances where a recommended procedure is described (such as number of rotations of the shaker) the recommended procedure should be followed. For the analytical determination of the substance in the two phases a skilled person will know what analytical method to use, gas chromatography (GC) can be preferably used, while HPLC can be used in case GC is not suitable.

[2] = Kovats Retention Index by gas chromatography on DB-5 column against n-alkane standards; format: physicochemical; settings: GC, non-isothermal, C8-C22 n-alkane standards
Description: Kovats Index as it is known in the art, is defined as the selective retention of perfume raw materials (PRMs) onto chromatographic columns based on the retention volume of the substance with respect to that to a homologous series of n-alkane standards.
The Kovats Index in the present application can be experimentally derived using an Agilent Technologies 6890 gas chromatogram with Flame Ionization Detector (FID), or equivalent using a DB-5 (5% phenyl-methylpolysiloxane) column 30 m×0.25 mm i.d., with a 0.25 micron film thickness available from Agilent Technologies. Chromatographic conditions are 1 mL/min of helium carrier with constant flow programming, a temperature program of 50° C. to 300° C. at […] temperature 350° C., split injection at 300° C. Different chromatographic conditions may be required to achieve separation of the analytes of interest and can be readily adjusted by one skilled in the art. A linear alkane hydrocarbon standard mix (C8-C22 available from Aldrich Chemical Company or equivalent) is injected and the retention time for each component is recorded. The test sample (appropriately diluted in a suitable solvent) is injected under the same conditions, and the retention time for each component of interest is recorded. The Kovats Index under non-isothermal conditions is calculated for each component of interest in the test sample using the equation: KI=100n+100[(tsubstance−tn)/(tn+1−tn)] Where: • t=the uncorrected retention time of a peak • unknown=the peak of interest • n=the number of carbon atoms in the smaller alkane whose peak is adjacent to the peak of interest

SMILES	logP [1]	KI (Kovats Retention Index) [2]	Log P [1]
O=C(OC1CCCCC1)c1ccccc1O [Cyclohexyl salicylate]	4.15	1821	
CCC(=O)OCC(C)(C)OC(C)C1CCCC(C)(C)C1 (stereo not shown) [Helvetolide]		1773	5.56
O=C1CCCCCCCCC/C=C/CCCO1 [Habanolide]		1862.9	4.32
O=C(Oc1ccccc1)c1ccccc1O [Phenyl salicylate]	3.49	1851.1	
O=C1CCCCC/C=C/CCCCCCCCO1 [trans-ambrettolide]		1961.1	4.64
O=C(OCc1ccccc1)c1ccccc1O [Benzyl salicylate]	3.56	1920.3	
O=C1CCCCCCCCCCCCCCO1 [Exaltolide]	4.81	1882	
Cc1ccc(OC(=O)c2ccccc2O)cc1 [p-Cresyl salicylate]	4.06	1944.5	
CC(C)=CCOC(=O)c1ccccc1O [Prenyl salicylate]	3.05	1655.3	

Second part, the compound after the results:

logP [1]	KI (Kovats Retention Index) [2]	Log P [1]	SMILES
3.58	1572.9		CCCCOC(=O)c1ccccc1O [Butyl salicylate]
4.09	1668.8		CCCCCOC(=O)c1ccccc1O [amyl salicylate]
4.58	1765.1		CCCCCCOC(=O)c1ccccc1O [n-Hexyl salicylate]
3.74	1616.4		CC(C)CCOC(=O)c1ccccc1O [Isoamyl salicylate]
4.92	1889.5		CCCCC(CC)COC(=O)c1ccccc1O (stereo not shown) [2-Ethylhexyl salicylate]
